# Results: patent publication US20080199858A1, “Method for Detecting Estrogen-Like Chemicals by Plant” (priority 2004, published 2008)
# Target: T1, chimeric estrogen receptor containing hERαLBD and LexA DBD (Homo sapiens, UniProt P03372)
# T1 construct: expressed in transfected cells; host or cells: transgenic Arabidopsis thaliana (Columbia), Agrobacterium C58-mediated transformation, CaMV 35S promoter
# Format: in vivo
# Details: T2 seeds on MS agar medium, grown for a week; FIG. 6
# Procedure: Seeds of T3 were sown on a MS agar medium containing 17β-estradiol (WAKO Pure Chemical Inds.). The expression of GUS gene was examined by GUS activity staining method and GUS activity assay method by the use of a transformed plant grown for a week.
# The induction of reporter gene expression by estrogen in transformed Arabidopsis thaliana was performed by the following procedures. […] After that the transformed Arabidopsis thaliana was sprouted and grown in a bright place at 22° C. for specified days for the continuous exposure to estrogen.
# The Gus activity assay method was performed in the following way. […] Twenty plants treated with estrogen were frozen in liquid nitrogen and were crushed into powder by a homogenizer. Then, the extraction buffer (50 mM NaH2PO4, 10 mM EDTA, 0.1% Triton-X-100, 0.1% N-sodium lauroyl sarcosinate, 10 mM β-mercaptoethanol) was added and soluble protein was extracted. 4-methylumbelliferyl-β-D-glucronide (4-MUG) was used for a substrate of GUS activity assay. The extracted protein solution was added with extraction buffer containing final 1 mM 4-MUG and was reacted at 37° C. for 1 hr. […] Also, protein concentration in the solution was measured and measured values obtained by fluorescent spectroscopy were standardized by the correction depending on the total protein in the protein solution. […]
# T1 sequence (P0A7C2 1-87, change not shown): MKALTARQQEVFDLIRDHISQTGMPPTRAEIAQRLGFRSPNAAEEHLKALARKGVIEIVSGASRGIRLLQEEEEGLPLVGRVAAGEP
# T1 sequence (P03372 311-547, change not shown): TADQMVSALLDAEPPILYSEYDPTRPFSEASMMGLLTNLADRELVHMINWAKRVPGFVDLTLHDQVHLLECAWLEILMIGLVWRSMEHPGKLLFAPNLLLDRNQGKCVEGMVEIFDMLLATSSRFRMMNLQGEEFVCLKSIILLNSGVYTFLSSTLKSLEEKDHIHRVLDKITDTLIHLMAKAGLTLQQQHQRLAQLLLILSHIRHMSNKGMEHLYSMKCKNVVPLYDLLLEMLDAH
# T1 sequence (Q15596 624-869, change not shown, further chain): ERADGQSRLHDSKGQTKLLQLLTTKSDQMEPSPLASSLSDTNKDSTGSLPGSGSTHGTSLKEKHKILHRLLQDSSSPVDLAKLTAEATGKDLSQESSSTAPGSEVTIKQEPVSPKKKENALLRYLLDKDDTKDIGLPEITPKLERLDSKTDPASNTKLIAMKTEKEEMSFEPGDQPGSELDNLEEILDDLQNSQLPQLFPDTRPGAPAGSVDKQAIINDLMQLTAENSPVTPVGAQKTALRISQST
# T1 sequence (P06492 413-490, change not shown, further chain): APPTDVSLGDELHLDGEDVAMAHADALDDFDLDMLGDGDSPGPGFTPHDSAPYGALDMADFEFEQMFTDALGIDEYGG
smiles,measurement,value
"CC(C)(c1ccc(O)cc1)c1ccc(O)cc1 [BPA, bisphenol A]",concentration from which expression of GUS gene responds / increases,> 100 nM
same,optimal concentration for the expression of GUS gene,100 nM
